In US10028961B2, “Therapeutically active compounds and their methods of use” (AGIOS PHARMACEUTICALS, INC., priority 2013, dated 2018):

Assays:
IDH1 R132C = IDH1 R132C (Homo sapiens (Human), UniProt O75874, R132C); assay: In vitro assay IDH1 R132C homodimer, NADPH depletion assay; format: biochemical
Method: (§1) The following describes the experimental procedures that can be used to obtain data on columns 3 and 6 of Table 4.
(§2) A test compound is prepared as 10 mM stock in DMSO and diluted to 50× final concentration in DMSO, for a 50 μl reaction mixture. IDH enzyme activity converting alpha-ketoglutarate to 2-hydroxyglutaric acid is measured using a NADPH depletion assay. In the assay the remaining cofactor is measured at the end of the reaction with the addition of a catalytic excess of diaphorase and resazurin, to generate a fluorescent signal in proportion to the amount of NADPH remaining. […] The reaction is started with the addition of 10 μl of Substrate Mix ([…], 5 mM alpha-ketoglutarate, in Assay Buffer) and the mixture is incubated for 90 minutes at room temperature.
The concentration of NADPH and alpha-ketoglutarate in the Substrate Buffer is 20 μM and 1 mM, respectively.

[1] = molecular target: IDH1-R132 homodimer enzyme (R132H) (Homo sapiens (Human), UniProt O75874, R132H); assay: In vitro assay IDH1-R132H homodimer, NADPH depletion assay; format: biochemical
Chain of IDH1-R132 homodimer enzyme (R132H) (O75874 whole entry R132H): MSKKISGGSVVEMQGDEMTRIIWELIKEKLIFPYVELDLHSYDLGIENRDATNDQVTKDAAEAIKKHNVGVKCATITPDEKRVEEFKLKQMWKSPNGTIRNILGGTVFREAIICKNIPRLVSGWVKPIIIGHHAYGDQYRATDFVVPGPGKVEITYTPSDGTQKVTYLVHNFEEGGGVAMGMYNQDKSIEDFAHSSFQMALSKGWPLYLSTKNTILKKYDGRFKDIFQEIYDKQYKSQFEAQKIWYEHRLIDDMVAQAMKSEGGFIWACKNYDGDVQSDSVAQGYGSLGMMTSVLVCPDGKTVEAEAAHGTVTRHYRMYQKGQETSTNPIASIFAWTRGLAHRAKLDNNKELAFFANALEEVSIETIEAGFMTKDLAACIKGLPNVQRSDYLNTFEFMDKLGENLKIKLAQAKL
Method: as §1, §2

IDH2 R140Q = IDH2 R140Q (Homo sapiens (Human), UniProt P48735, R140Q); assay: In vitro assay for IDH2m R140Q inhibitors, cofactor depletion assay; format: biochemical; conditions: IDH2 R140Q enzyme
Chain of IDH2 R140Q (P48735 40-452 R140Q): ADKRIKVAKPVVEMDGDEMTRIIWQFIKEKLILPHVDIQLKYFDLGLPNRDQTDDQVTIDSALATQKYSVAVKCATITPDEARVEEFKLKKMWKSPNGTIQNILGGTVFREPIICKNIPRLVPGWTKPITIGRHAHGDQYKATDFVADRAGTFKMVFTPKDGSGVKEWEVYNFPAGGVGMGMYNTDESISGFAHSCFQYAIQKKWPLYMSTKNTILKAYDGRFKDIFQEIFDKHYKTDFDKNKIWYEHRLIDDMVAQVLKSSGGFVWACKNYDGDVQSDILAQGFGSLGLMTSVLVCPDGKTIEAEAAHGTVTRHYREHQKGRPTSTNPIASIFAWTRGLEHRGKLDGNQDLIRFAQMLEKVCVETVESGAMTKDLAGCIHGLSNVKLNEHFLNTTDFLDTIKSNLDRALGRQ
Procedure, shortened: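 Remaining cofactor measured fluorimetrically: diaphorase/resazurin Stop Mix […], halting the reaction. Before that, mutant enzyme and compound sat 1 h at RT, then substrate mix (4 μM NADPH, 1.6 mM α-KG) was added for 16 h at RT.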

HT1080 cells = assay: Cellular assay for IDH1m R132C inhibitors, 2-HG by LC-MS in HT1080 cells; format: cell-based; conditions: Homo sapiens, HT-1080
Procedure, shortened: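 2-HG levels were measured by LC-MS in culture medium sampled 48 h after compound addition (0.2% DMSO) to HT1080 cells seeded overnight at 5000 cells/well. A CellTiter-Glo luminescence read at 72 h gave cell viability.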

[2] = system: U87MG pLVX-IDH2 R140Q-neo cells; assay: U87MG pLVX-IDH2 R140Q-neo cell based assay, 2-HG by LC-MS; conditions: Homo sapiens, U-87 MG
[3] = molecular target: IDH1-R132H homodimer enzyme (Homo sapiens (Human), UniProt O75874, R132H); assay: In vitro assay IDH1-R132H homodimer, NADPH depletion assay with NADPH/NADP preincubation; format: biochemical; conditions: 5 μM NADPH and 37.5 μM NADP
Chain of IDH1-R132H homodimer enzyme (O75874 whole entry R132H): as the sequence (O75874 whole entry R132H) above
Procedure, shortened: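 Compounds were added from DMSO at 50× final concentration, and the mutant enzyme was incubated 60 min at room temperature after starting with a substrate mix holding NADPH and 5 mM alpha-ketoglutarate. Residual cofactor, read by fluorescence after excess diaphorase and resazurin, reflects enzyme turnover.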

[4] = molecular target: IDH1 wt/IDH1 R132H heterodimer (Homo sapiens (Human), UniProt O75874, R132H); assay: In vitro assay for IDH1m R132H inhibitors, IDH1 wt/IDH1 R132H heterodimer, NADPH depletion (diaphorase/resazurin); format: biochemical; conditions: IDH1 wt/R132H heterodimer, NADPH/NADP, not saturated; read-out: IDH1 wt/R132H NADPH/NADP IC50 not saturated
Chain of IDH1 wt/IDH1 R132H heterodimer (O75874 whole entry R132H): as above
Chain of IDH1 wt/IDH1 R132H heterodimer (O75874 whole entry, stated change not applied): as the sequence (O75874 whole entry R132H) above, with H132R counted along it
Procedure, shortened: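 Read-out is NADPH left after α-KG reduction to 2-HG, measured via resorufin fluorescence after 5 min diaphorase/resazurin step at 25° C. Enzyme is sf9-expressed IDH1wt-his/IDH1R132H-flag heterodimer, pre-incubated 1 hr at room temperature with compound and cofactor. IC50s from DMSO stocks diluted 1:50.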

Chain of IDH1 R132C (O75874 whole entry R132C): as the sequence (O75874 whole entry R132H) above, with H132C counted along it

| Structure (SMILES) | IC50 (IDH1 R132C) [nM] | IC50 [1] [nM] | IC50 (IDH2 R140Q) [nM] | IC50 (HT1080 cells) [nM] | further results |
| --- | --- | --- | --- | --- | --- |
| FC(F)(F)c1cccc(-c2nc(NCC3CCC3)nc(NCC3CCC3)n2)n1 [Compound 7] | > 1000 | 100 to 1000 | < 50 |  |  |
| CCCC(C)Nc1nc(N[C@H](C)C2CC2)nc(-c2cccc(C(F)(F)F)n2)n1 (stereo partly drawn) [Compound 39] | 50 to 100 | < 50 |  | 50 to 100 |  |
| CC(C)C(C)Nc1nc(NC(C)C(C)C)nc(-c2cccc(C(F)(F)F)n2)n1 (stereo not drawn) [Compound 13] | 50 to 100 | < 50 |  | < 50 |  |
| FC(F)(F)c1cccc(-c2nc(NCC3CC3)nc(NCC3CC3)n2)n1 [Compound 1] | > 1000 | > 1000 | < 50 |  | IC50 [2]: < 50 nM |
| C[C@@H](Nc1cc(NC(C)(C)C)nc(-c2cccc(C(F)(F)F)n2)n1)C1CC1 [Compound 417] | > 1000 | 100 to 1000 |  |  | IC50 [3]: 100 to 1000 nM |
| C[C@@H](Nc1nc(N[C@H](C)C2CCC2)nc(-c2cccc(C(F)(F)F)n2)n1)C1CCC1 [Compound 19] | 50 to 100 | 50 to 100 |  | 50 to 100 |  |
| C[C@@H](Nc1nc(N[C@H](C)C2CC2)nc(-c2cccc(CO)c2)n1)C1CC1 [Compound 16] | > 1000 | > 1000 | < 50 |  |  |
| CC(O)CNc1nc(N[C@H](C)C2CC2)nc(-c2cccc(C(F)(F)F)n2)n1 (stereo partly drawn) [Compound 12, 1-(4-((R)-1-cyclopropylethylamino)-6-(6-(trifluoromethyl)pyridin-2-yl)-1,3,5-triazin-2-ylamino)propan-2-ol] | > 1000 | > 1000 | 50 to 100 |  |  |
| COc1ccc(F)c(-c2nc(N[C@H](C)C3CC3)nc(N[C@H](C)C3CC3)n2)c1 [Compound 8] | > 1000 |  | 50 to 100 |  | IDH1 R132H IC50 [1]: No Fit |
| FC(F)(F)c1cccc(-c2nc(NC3CC4CC4C3)nc(NC3CC4CC4C3)n2)n1 (stereo not drawn) [Compound 36] | 50 to 100 | < 50 |  |  | IC50 [4]: < 50 nM |
| CC(O)CNc1nc(NCC(C)O)nc(-c2cccc(C(F)(F)F)n2)n1 (stereo not drawn) [Compound 14] | > 1000 | > 1000 | > 1000 |  |  |
| FC1(F)CCC(Nc2nc(NC3CCC(F)(F)C3)nc(-c3cccc(C(F)(F)F)n3)n2)C1 (stereo not drawn) [Compound 31] | < 50 | < 50 | < 50 | < 50 |  |
| C[C@@H](Nc1nc(NCC(C)(C)O)nc(-c2cccc(C(F)(F)F)n2)n1)C1CC1 (stereo in doubt) [Compound 10, 1-(4-(1-cyclopropylethylamino)-6-(6-(trifluoromethyl)pyridin-2-yl)-1,3,5-triazin-2-ylamino)-2-methylpropan-2-ol] | > 1000 | > 1000 | 50 to 100 |  |  |
| C[C@@H](Nc1nc(N[C@H](C)C2CC2)nc(-c2cccc(C(F)(F)F)n2)n1)c1ccccc1 [Compound 22] | 100 to 1000 | 50 to 100 | < 50 |  |  |
| CC(Nc1nc(N[C@H](C)C2CC2)nc(-c2cccc(C(F)(F)F)n2)n1)c1ccccc1 (single isomer, unassigned) [Compound 20] | 50 to 100 | 50 to 100 | < 50 |  | IC50 [4]: < 50 nM |
| C[C@@H](Nc1nc(NC2(c3ccccc3)CC2)nc(-c2cccc(C(F)(F)F)n2)n1)C1CC1 [Compound 30] | 100 to 1000 | 50 to 100 | 50 to 100 |  |  |
| CC(C)(C)Nc1nc(NC(C)(C)C)nc(-c2cccc(C(F)(F)F)n2)n1 [Compound 4] | 50 to 100 | 50 to 100 | < 50 | 50 to 100 |  |

| Structure (SMILES) | IC50 (IDH1 R132C) [nM] | IC50 [1] [nM] | IC50 (IDH2 R140Q) [nM] | IC50 (HT1080 cells) [nM] | further results |
| --- | --- | --- | --- | --- | --- |
| CC(C)[C@@H](C)Nc1nc(N[C@H](C)C(C)C)nc(-c2cccc(C(F)(F)F)n2)n1 [Compound 18] | 50 to 100 | < 50 |  | 50 to 100 |  |
| FC(F)(F)c1cccc(-c2nc(NC3CCC3)nc(NC3CCC3)n2)n1 [Compound 9] | 100 to 1000 | 50 to 100 | < 50 |  |  |
| C[C@@H](Nc1nc(NCc2ccccc2)nc(-c2cccc(C(F)(F)F)n2)n1)C1CC1 [Compound 21] | > 1000 | > 1000 | < 50 |  |  |
| C[C@@H](Nc1nc(N[C@H](C)C2CC2)nc(-c2cccc(O)c2)n1)C1CC1 [Compound 11] | 50 to 100 | 100 to 1000 | < 50 | 50 to 100 |  |
| CC(C)[C@H](C)Nc1nc(N[C@@H](C)C(C)C)nc(-c2cccc(C(F)(F)F)n2)n1 [Compound 17] | 50 to 100 | 50 to 100 |  | < 50 |  |
| C[C@@H](Nc1nc(N[C@H](C)C2CC2)nc(-c2cccc(C(F)(F)F)n2)n1)C1CC1 [Compound 2] | < 50 | < 50 | < 50 | < 50 | IC50 [2]: < 50 nM |
| C[C@@H](Nc1nc(NC2CCOC2)nc(-c2cccc(C(F)(F)F)n2)n1)C1CC1 (stereo partly drawn) [Compound 38] | 100 to 1000 | 50 to 100 |  |  |  |
| C[C@H](Nc1nc(N[C@H](C)C2CC2)nc(-c2cccc(C(F)(F)F)n2)n1)C1CC1 [Compound 34] | 50 to 100 | < 50 |  | < 50 |  |
| C[C@H](Nc1nc(N[C@H](C)c2ccccc2)nc(-c2cccc(C(F)(F)F)n2)n1)c1ccccc1 [Compound 26] | > 1000 | 100 to 1000 | < 50 |  |  |
| C[C@@H](Nc1nc(N[C@H]2CCCC[C@@H]2O)nc(-c2cccc(C(F)(F)F)n2)n1)C1CC1 [Compound 42] | 100 to 1000 | 50 to 100 |  |  |  |
| C[C@@H](Nc1nc(NC2CCC(F)(F)CC2)nc(-c2cccc(C(F)(F)F)n2)n1)C1CC1 [Compound 50] | 50 to 100 | < 50 |  |  | IC50 [4]: < 50 nM |
| C[C@@H](Nc1nc(NCC(N)=O)nc(-c2cccc(C(F)(F)F)n2)n1)C1CC1 [Compound 5] |  | > 1000 |  |  | IDH1 R132C IC50 (IDH1 R132C): No Fit |
| CC(C)CNc1nc(NC(C)(C)C#N)nc(-c2cc(O)ccc2F)n1 [Compound 86] | > 1000 | > 1000 |  |  | IC50 [4]: 50 to 100 nM |
| C[C@H](Nc1nc(N[C@@H](C)C2CC2)nc(-c2cccc(C(F)(F)F)n2)n1)C1CC1 [Compound 33] | 50 to 100 | < 50 |  | < 50 |  |
| CC(Nc1nc(N[C@H](C)C2CC2)nc(-c2cccc(C(F)(F)F)n2)n1)c1cccc(F)c1 (stereo partly drawn) [Compound 28] | 50 to 100 | 50 to 100 |  | 50 to 100 | IC50 [4]: < 50 nM |
| CC(Nc1nc(N[C@H](C)C2CC2)nc(-c2cccc(C(F)(F)F)n2)n1)c1cccc(C(F)(F)F)c1 (stereo partly drawn) [Compound 27] | 100 to 1000 | 50 to 100 |  |  |  |
| CC(=O)CNc1nc(N[C@H](C)C2CC2)nc(-c2cccc(C(F)(F)F)n2)n1 [Compound 15] | > 1000 | > 1000 |  |  |  |
